Laboratory results from patent publication US10351594B2, “Process for preparing compounds having triple activities of thrombolysis, antithrombosis, and radical scavenging” (Shanghai Lumosa Therapeutics Co., Ltd., priority 2013, dated 2019).
Like-named read-outs stand apart in the source and are kept apart here.

System: stroke rats
[1] = 2.5 μmol/kg 5Ak after 6 hours from stroke onset, 1st day
[2] = 2.5 μmol/kg 5Ak after 6 hours from stroke onset, 2nd day
[3] = 2.5 μmol/kg 5Ak after 6 hours from stroke onset, 3rd day
[4] = 2.5 μmol/kg 5Ak after 6 hours from stroke onset, 4th day
[5] = 2.5 μmol/kg 5Ak after 6 hours from stroke onset, 5th day
[6] = 2.5 μmol/kg 5Ak after 6 hours from stroke onset, 6th day
[7] = 2.5 μmol/kg 5Ak after 24 hours from stroke onset, 1st day
[8] = 2.5 μmol/kg 5Ak after 24 hours from stroke onset, 2nd day
[9] = 2.5 μmol/kg 5Ak after 24 hours from stroke onset, 3rd day
[10] = 2.5 μmol/kg 5Ak after 24 hours from stroke onset, 4th day
[11] = 2.5 μmol/kg 5Ak after 24 hours from stroke onset, 5th day
[12] = 2.5 μmol/kg 5Ak after 24 hours from stroke onset, 6th day
[13] = 5 μmol/kg 5Ak after 24 hours from stroke onset, 1st day
[14] = 5 μmol/kg 5Ak after 24 hours from stroke onset, 2nd day
[15] = 5 μmol/kg 5Ak after 24 hours from stroke onset, 3rd day
[16] = 5 μmol/kg 5Ak after 24 hours from stroke onset, 4th day
[17] = 5 μmol/kg 5Ak after 24 hours from stroke onset, 5th day
[18] = 5 μmol/kg 5Ak after 24 hours from stroke onset, 6th day
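Note: male SD rats with thrombus-induced cerebral embolism via internal carotid artery, scored daily by Zealonga neurological deficit scale (0 no deficit to 5 death), lower score better.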

Protocol: The therapeutic effect was evaluated by neurological functional scores. The lower the score was, the better the therapeutic effect was. A 10% chloral hydrate solution was injected intraperitoneally into male SD rats at a dosage of 400 mg/kg body weight for anesthesia. A longitudinal incision was made at the center of the neck, and the right common carotid artery trunk was separated (about 3 cm in length). External carotid artery branches were each separated and ligated at the hyoid level, and the internal carotid artery was separated from the swollen part of the neck. The incision of the internal carotid artery and the proximal end of the common carotid artery were clipped respectively with noninvasive arterial clips, and the distal end of the external carotid artery was ligated. A catheter containing 0.5 mL thrombus suspension in normal saline was inserted in the external carotid artery trunk. When the clip on the internal carotid artery was released, the 0.5 mL thrombus suspension in normal saline in the catheter slowly flew from the external carotid artery to its proximal end, and then was injected into the arteries in brain through the internal carotid artery. Subsequently, the proximal end of the internal carotid artery was ligated, the arterial clips on the internal carotid artery and the common carotid artery were released, and blood flow was restored. After the wound was stitched up, 20,000 IU penicillin was intramuscularly injected for prevention from infection. […] Self-comparison was performed each day, and the neurological deficit degree was evaluated by the Zealonga method. A score of 0 indicated no sign of loss in neural function, 1 indicated the front limbs on the undamaged side could not stretch out, 2 indicated walking toward the undamaged side, 3 indicated tail-chasing walking in circles toward the undamaged side, 4 indicated involuntary walking with disturbance of consciousness, and 5 indicated death.

C[C@H](NC(=O)[C@@H]1CCCN1)C(=O)N[C@@H](CCCCN)C(=O)NCCCC[C@H](NC(=O)[C@@H]1Cc2cc(O)c(O)cc2C(C)(C)N1)C(=O)O [Compound 5Ak, 3S-6,7-dihydroxy-1,1-dimethyl-1,2,3,4-tetrahydro-isoquinoline-3-acyl-Lys(Pro-Ala-Lys)]
therapeutic effect, result in words (2.5 μmol/kg 5Ak after 6 hours from stroke onset): better therapeutic effect than 1 μmol/kg 5Ak | Daily neural function scores, number of rats under 0 score [1]: 1 | Daily neural function scores, number of rats under 1 score [1]: 7 | Daily neural function scores, number of rats under 2 scores [1]: 0 | Daily neural function scores, number of rats under 3 scores [1]: 1 | Daily neural function scores, number of rats under 4 scores [1]: 0 | Daily neural function scores, number of rats under 5 scores [1]: 0 | Daily neural function scores, number of rats under 0 score [2]: 3 | Daily neural function scores, number of rats under 1 score [2]: 4 | Daily neural function scores, number of rats under 2 scores [2]: 2 | Daily neural function scores, number of rats under 3 scores [2]: 0 | Daily neural function scores, number of rats under 4 scores [2]: 0 | Daily neural function scores, number of rats under 5 scores [2]: 0 | Daily neural function scores, number of rats under 0 score [3]: 6 | Daily neural function scores, number of rats under 1 score [3]: 2 | Daily neural function scores, number of rats under 2 scores [3]: 1 | Daily neural function scores, number of rats under 3 scores [3]: 0 | Daily neural function scores, number of rats under 4 scores [3]: 0 | Daily neural function scores, number of rats under 5 scores [3]: 0 | Daily neural function scores, number of rats under 0 score [4]: 6 | Daily neural function scores, number of rats under 1 score [4]: 3 | Daily neural function scores, number of rats under 2 scores [4]: 0 | Daily neural function scores, number of rats under 3 scores [4]: 0 | Daily neural function scores, number of rats under 4 scores [4]: 0 | Daily neural function scores, number of rats under 5 scores [4]: 0 | Daily neural function scores, number of rats under 0 score [5]: 5 | Daily neural function scores, number of rats under 1 score [5]: 4 | Daily neural function scores, number of rats under 2 scores [5]: 0 | Daily neural function scores, number of rats under 3 scores [5]: 0 | Daily neural function scores, number of rats under 4 scores [5]: 0 | Daily neural function scores, number of rats under 5 scores [5]: 0 | Daily neural function scores, number of rats under 0 score [6]: 7 | Daily neural function scores, number of rats under 1 score [6]: 2 | Daily neural function scores, number of rats under 2 scores [6]: 0 | Daily neural function scores, number of rats under 3 scores [6]: 0 | Daily neural function scores, number of rats under 4 scores [6]: 0 | Daily neural function scores, number of rats under 5 scores [6]: 0 | therapeutic effect, result in words (2.5 μmol/kg 5Ak after 24 hours from stroke onset): certain therapeutic effect | Daily neural function scores, number of rats under 0 score [7]: 1 | Daily neural function scores, number of rats under 1 score [7]: 4 | Daily neural function scores, number of rats under 2 scores [7]: 1 | Daily neural function scores, number of rats under 3 scores [7]: 0 | Daily neural function scores, number of rats under 4 scores [7]: 1 | Daily neural function scores, number of rats under 5 scores [7]: 0 | Daily neural function scores, number of rats under 0 score [8]: 3 | Daily neural function scores, number of rats under 1 score [8]: 2 | Daily neural function scores, number of rats under 2 scores [8]: 1 | Daily neural function scores, number of rats under 3 scores [8]: 1 | Daily neural function scores, number of rats under 4 scores [8]: 0 | Daily neural function scores, number of rats under 5 scores [8]: 0 | Daily neural function scores, number of rats under 0 score [9]: 3 | Daily neural function scores, number of rats under 1 score [9]: 2 | Daily neural function scores, number of rats under 2 scores [9]: 1 | Daily neural function scores, number of rats under 3 scores [9]: 0 | Daily neural function scores, number of rats under 4 scores [9]: 0 | Daily neural function scores, number of rats under 5 scores [9]: 1 | Daily neural function scores, number of rats under 0 score [10]: 2 | Daily neural function scores, number of rats under 1 score [10]: 2 | Daily neural function scores, number of rats under 2 scores [10]: 1 | Daily neural function scores, number of rats under 3 scores [10]: 1 | Daily neural function scores, number of rats under 4 scores [10]: 0 | Daily neural function scores, number of rats under 5 scores [10]: 0 | Daily neural function scores, number of rats under 0 score [11]: 4 | Daily neural function scores, number of rats under 1 score [11]: 0 | Daily neural function scores, number of rats under 2 scores [11]: 1 | Daily neural function scores, number of rats under 3 scores [11]: 0 | Daily neural function scores, number of rats under 4 scores [11]: 0 | Daily neural function scores, number of rats under 5 scores [11]: 1 | Daily neural function scores, number of rats under 0 score [12]: 3 | Daily neural function scores, number of rats under 1 score [12]: 1 | Daily neural function scores, number of rats under 2 scores [12]: 1 | Daily neural function scores, number of rats under 3 scores [12]: 0 | Daily neural function scores, number of rats under 4 scores [12]: 0 | Daily neural function scores, number of rats under 5 scores [12]: 0 | rats that died during successive 6-day treatment (2.5 μmol/kg 5Ak once per day after 6 hours from stroke onset, nine rats): no death occurred | rats that died during successive 6-day treatment (2.5 μmol/kg 5Ak once per day after 24 hours from stroke onset, seven rats): two | therapeutic effect, result in words (5 μmol/kg 5Ak after 24 hours from stroke onset): definite therapeutic effect | Daily neural function scores, number of rats under 0 score [13]: 0 | Daily neural function scores, number of rats under 1 score [13]: 5 | Daily neural function scores, number of rats under 2 scores [13]: 4 | Daily neural function scores, number of rats under 3 scores [13]: 0 | Daily neural function scores, number of rats under 4 scores [13]: 1 | Daily neural function scores, number of rats under 5 scores [13]: 0 | Daily neural function scores, number of rats under 0 score [14]: 2 | Daily neural function scores, number of rats under 1 score [14]: 6 | Daily neural function scores, number of rats under 2 scores [14]: 2 | Daily neural function scores, number of rats under 3 scores [14]: 0 | Daily neural function scores, number of rats under 4 scores [14]: 0 | Daily neural function scores, number of rats under 5 scores [14]: 0 | Daily neural function scores, number of rats under 0 score [15]: 2 | Daily neural function scores, number of rats under 1 score [15]: 6 | Daily neural function scores, number of rats under 2 scores [15]: 2 | Daily neural function scores, number of rats under 3 scores [15]: 0 | Daily neural function scores, number of rats under 4 scores [15]: 0 | Daily neural function scores, number of rats under 5 scores [15]: 0 | Daily neural function scores, number of rats under 0 score [16]: 5 | Daily neural function scores, number of rats under 1 score [16]: 5 | Daily neural function scores, number of rats under 2 scores [16]: 0 | Daily neural function scores, number of rats under 3 scores [16]: 0 | Daily neural function scores, number of rats under 4 scores [16]: 0 | Daily neural function scores, number of rats under 5 scores [16]: 0 | Daily neural function scores, number of rats under 0 score [17]: 6 | Daily neural function scores, number of rats under 1 score [17]: 4 | Daily neural function scores, number of rats under 2 scores [17]: 0 | Daily neural function scores, number of rats under 3 scores [17]: 0 | Daily neural function scores, number of rats under 4 scores [17]: 0 | Daily neural function scores, number of rats under 5 scores [17]: 0 | Daily neural function scores, number of rats under 0 score [18]: 7 | Daily neural function scores, number of rats under 1 score [18]: 3 | Daily neural function scores, number of rats under 2 scores [18]: 0 | Daily neural function scores, number of rats under 3 scores [18]: 0 | Daily neural function scores, number of rats under 4 scores [18]: 0 | Daily neural function scores, number of rats under 5 scores [18]: 0 | rats that died during successive 6-day treatment (5 μmol/kg 5Ak once per day after 24 hours from stroke onset, ten rats): no death occurred
